Assay results published in US12661352B2, “Combination therapy with CLK/DYRK inhibitors and BCL2 inhibitors to treat leukemia” (Memorial Sloan-Kettering Cancer Center, priority 2023, dated 2026).

What was measured:
[1] = system: venetoclax-resistant MOLM-13 cell lines; experiment: Drug treatment IC50 / cell viability (CellTiter Glo) and synergy, venetoclax-resistant MOLM-13 cell lines; format: cell-based; conditions: Homo sapiens, cell lines developed by continuous exposure to venetoclax for 3 weeks
Experimental: (§1) Cell lines were plated in 96 well plates and exposed to the indicated compounds at various concentration ranges with a minimum of three technical replicates per concentration per cell line. Cell viability was measured with the CellTiter Glo reagent (Promega) as per manufacturer's instructions. Absolute viability values were converted to percentage viability versus DMSO control treatment, and then non-linear fit of log (inhibitor) versus response (three parameters) was performed in GraphPad Prism v7.0 to obtain an IC50 values. Two-dimensional heatmaps of Synergy Scores from Bliss synergy models were generated based on Demidenko et al., 2019^83.
The efficacy of SM09419 across a spectrum of human AML cell lines was tested. […] Three independent venetoclax-resistant MOLM-13 cell lines following continuous exposure to venetoclax for 3 weeks were developed. […] These findings were further extended to patient-derived xenograft (PDX) models of AML from patients with de novo resistance to venetoclax combination regimens (5-azacytidine or low-dose cytarabine) (FIGS. 6C-6D). Following xenotransplantation from two individual venetoclax-resistant patients into NSGS mice, disease engraftment with >10% human hCD45^+ hCD34^+ hCD38^+ cells was detected and mice were exposed to SM09419 (25 mg/kg) or vehicle administered orally and daily for 3 weeks.

MOLM-13 parental cells = experiment: Drug treatment IC50 / cell viability (CellTiter Glo) and synergy, MOLM-13 parental cells; format: cell-based; conditions: Homo sapiens
Experimental: as §1

IC50 [1]: > 99 nM
SMILES: CC1(C)CCC(CN2CCN(c3ccc(C(=O)NS(=O)(=O)c4ccc(NCC5CCOCC5)c([N+](=O)[O-])c4)c(Oc4cnc5[nH]ccc5c4)c3)CC2)=C(c2ccc(Cl)cc2)C1 [venetoclax]
IC50 (MOLM-13 parental cells): ~15 nM
